Reference: patent US20240002388A1, “PYRIMIDINONE COMPOUNDS AND USES THEREOF” (HUTCHISON MEDIPHARMA LIMITED, priority 2020, published 2024)

Molecular target: RIPK1 recombination protein (Homo sapiens (Human), UniProt Q13546)
Experiment: RIPK1 kinase activity assay (ADP-Glo)
Assay type: biochemical
Conditions: RIPK1 kinase activity, ADP-Glo, 10 μM ATP
Procedure: RIPK1 recombination protein: synthesized by Shanghai Medicilon Inc. under the commission by Hutchison MediPharma Limited (50 g of cell pellet was resuspended in 250 mL of lysis buffer (50 mM Tris, pH 7.5, 250 mM NaCl, 1 mM DTT, protease inhibitor 1:50), the cells were ultrasonically lysed using a sonicator (the power set to 4) on ice for 3×30 minutes; then centrifugation was carried out at 4° C., at 15,000 g for 30 minutes to clarify the suspension, the soluble pellet was resuspended into 10 mL of glutathione agarose, and incubated at 4° C. for 2 hours; then the beads were loaded into the column and washed with lysis buffer (no protease inhibitors) to baseline, and eluted with 20 mM of reduced glutathione (50 mM Tris, pH 8). The fractions identified by SDS-PAGE as containing the protein of interest were collected (10 mL of total volume), concentrated to about 5 mL and loaded into 300 mL superdex75 column (GE Healthcare) equilibrated with buffer (50 mM Tris, pH 7.5, 150 mM NaCl, 1 mM DTT, 10% glycerol, pH 7.5). RIP1 protein was eluted as a dimer from the superdex75 column. The protein concentration was determined by the Bradford assay using BSA as the standard. The yield was 12.5 mg at 0.63 mg/mL. The protein was aliquoted and frozen at −80° C. for later use.
ADP-Glo Kinase kit can be used to measure ADP level in kinase activity assay so as to distinguish the inhibitory effects of different compounds on RIPK1 kinase activity. The ADP-Glo assay was usually divided into three steps. Firstly, the kinase converted ATP to ADP and phosphorylated the substrate at the same time; secondly, ATP digestion reagent was added to degrade all ATP in the reaction system; finally, a detection reagent was added to reduce ADP to ATP, and energy from ATP was transferred to […] which thus emitting a chemical luminescence that can be detected. Assay procedure can refer to manufacture's technical manual.
(2) Reagent Preparation: • 1.33× kinase buffer: 5× kinase buffer stock (250 mM of NaCl, 150 mM of MgCl2, 2.5 mg/ml BSA (bovine serum albumin), 0.1% CHAPS (3-[(3-cholamidopropyl)-dimethyl-ammonio]-1-propane sulfonate), and 5 mM of dithiothreitol) was diluted with water to 1.33× kinase buffer; • RIPK1 enzyme solution: the kinase was dissolved in 1.33× kinase buffer to make 40 nM as the final working concentration; • ATP solution: 10 mM ATP stock solution in water was dissolved in 1.33× kinase buffer to make 10 μM as the final working concentration; • 4× compound preparation: the compound was diluted in a 3-fold gradient, and finally 4% DMSO aqueous solution containing different concentrations of the compound was obtained. The final concentrations of the test compound were 10, 3.33, 1.11, 0.37, 0.12, 0.04, 0.014, and 0.005 μM.
The assay set up two control groups, one was 100% inhibition group (no enzyme treatment), another was 0% inhibition group (no inhibitor treatment), each control group contained 8 replicate wells. 2.5 μl of serially diluted compound was added to each well of a 384-well plate, with double replicate wells, and 4% DMSO solution was added to control wells. Then 5 μl of RIPK1 enzyme solution was added to each well except 100% inhibition control, 5 ul of buffer was added to 100% inhibition control, after that, 2.5 μl of ATP solution was added to all wells, the plate was vibrated at 1000 rpm for 30 seconds to perform transient centrifuge; finally the 384-well assay plate was put in the shaking incubator, and incubated at room temperature for 3 hours. After the enzymatic reaction was completed, 5 μl of ATP depletion reagent was added to each well, the mixture was centrifuged transiently, then the 384-well assay plate was put in the shaking incubator, and incubated at room temperature for 1 hour. 5 μl of ADP detection reagent was added to each well, and the mixture was centrifuged transiently, and incubated at room temperature for 0.5 hour. […]

Chain of RIPK1 recombination protein (Q13546 other isoform, or with tags, fused parts or gaps): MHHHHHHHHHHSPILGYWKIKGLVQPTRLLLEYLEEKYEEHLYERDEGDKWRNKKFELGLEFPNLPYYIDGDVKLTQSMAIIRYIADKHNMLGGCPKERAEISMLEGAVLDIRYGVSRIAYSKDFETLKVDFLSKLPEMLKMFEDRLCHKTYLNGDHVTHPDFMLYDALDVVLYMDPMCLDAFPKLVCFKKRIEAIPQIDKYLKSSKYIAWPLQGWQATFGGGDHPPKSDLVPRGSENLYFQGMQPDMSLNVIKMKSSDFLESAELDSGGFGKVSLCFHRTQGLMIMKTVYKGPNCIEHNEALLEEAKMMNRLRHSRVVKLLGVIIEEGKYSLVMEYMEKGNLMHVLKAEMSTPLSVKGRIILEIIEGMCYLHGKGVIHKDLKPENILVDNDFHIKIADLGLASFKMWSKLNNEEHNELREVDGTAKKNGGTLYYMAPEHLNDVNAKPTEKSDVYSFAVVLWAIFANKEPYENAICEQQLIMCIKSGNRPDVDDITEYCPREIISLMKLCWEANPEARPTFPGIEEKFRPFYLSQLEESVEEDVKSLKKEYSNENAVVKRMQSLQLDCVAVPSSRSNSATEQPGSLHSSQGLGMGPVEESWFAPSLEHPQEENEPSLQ

| Structure (SMILES) | IC50 |
| --- | --- |
| CC(C)n1cncc(-c2ccc(C3(NC(=O)c4nc5n(n4)[C@@H](c4ccccc4)CC5)CC3)cc2)c1=O [Compound 15] | 30 nM |
| CC(C)n1cncc(-c2ccc(C3(NC(=O)c4nc5n(n4)[C@H](c4ccccc4)CC5)CC3)cc2)c1=O [Compound 16] | 25 nM |
| CC(C)n1cncc(-c2ccc(C3(NC(=O)c4ncn(Cc5ccccc5)n4)CC3)cc2)c1=O [Compound 17] | 15 nM |
| CC(C)n1cncc(-c2ccc(C3(NC(=O)c4ncc5cnn(-c6ccccc6)c5n4)CC3)cc2)c1=O [Compound 19] | 71 nM |
| CC(C)Cc1nc(C(=O)NC2(c3ccc(-c4cncn(C(C)C)c4=O)cc3)CC2)ncc1Cl [Compound 22] | 55 nM |
| CC(C)n1ncc2cnc(C(=O)NC3(c4ccc(-c5cncn(C)c5=O)c(F)c4)CC3)nc21 [Compound 23, N-(1-(3-fluoro-4-(1-methyl-6-oxo-1,6-dihydropyrimidin-5-yl)phenyl)cyclopropyl)-1-isopropyl-1H-pyrazolo[3,4-d]pyrimidine-6-carboxamide] | 49 nM |
| CC(C)n1cncc(-c2ccc(C3(NC(=O)c4ncc5cnn(C(C)C)c5n4)CC3)cc2)c1=O [Compound 29, 1-isopropyl-N-(1-(4-(1-isopropyl-6-oxo-1,6-dihydropyrimidin-5-yl)phenyl)cyclopropyl)-1H-pyrazolo[3,4-d]pyrimidine-6-carboxamide] | 19 nM |
| CC(C)n1ncc2cnc(C(=O)NC3(c4ccc(-c5cnc(N)n(C)c5=O)cc4)CC3)nc21 [Compound 30] | 35 nM |
| CC(C)n1cncc(-c2ccc(C3(NC(=O)c4ncc5cnn(C(C)C)c5n4)CC3)cc2Cl)c1=O [Compound 33] | 59 nM |
| CCn1cncc(-c2ccc(C3(NC(=O)c4ncc5cnn(C(C)C)c5n4)CC3)cc2)c1=O [Compound 37] | 41 nM |
| CC(C)n1ncc2cnc(C(=O)NC3(c4ccc(-c5cncn(CC(F)(F)F)c5=O)cc4)CC3)nc21 [Compound 38] | 48 nM |
| CC(C)n1ncc2cnc(C(=O)NC3(c4ccc(-c5cncn([C@H](C)C(F)(F)F)c5=O)cc4)CC3)nc21 [Compound 39] | 59 nM |
| CC(C)n1ncc2cnc(C(=O)NC3(c4ccc(-c5cncn([C@@H](C)C(F)(F)F)c5=O)cc4)CC3)nc21 [Compound 40] | 52 nM |
| CC(C)n1ncc2cnc(C(=O)NC3(c4ccc(-c5cncn(C6COC6)c5=O)cc4)CC3)nc21 [Compound 41] | 61 nM |
| CC(C)n1ncc2cnc(C(=O)NC3(c4ccc(-c5cncn(C6CCC6)c5=O)cc4)CC3)nc21 [Compound 42] | 56 nM |
| CC[C@@H](C)n1cncc(-c2ccc(C3(NC(=O)c4ncc5cnn(C(C)C)c5n4)CC3)cc2)c1=O [Compound 44] | 37 nM |

| Structure (SMILES) | IC50 |
| --- | --- |
| CC(C)Cn1cncc(-c2ccc(C3(NC(=O)c4ncc5cnn(C(C)C)c5n4)CC3)cc2)c1=O [Compound 45] | 40 nM |
| Cn1cncc(-c2ccc(C3(NC(=O)c4nc5n(n4)[C@@H](c4ccccc4)CC5)CC3)cc2)c1=O [Compound 54, (R)—N-(1-(4-(1-methyl-6-oxo-1,6-dihydropyrimidin-5-yl)phenyl)cyclopropyl)-5-phenyl-6,7-dihydro-5H-pyrrolo[1,2-b][1,2,4]triazole-2-carboxamide] | 27 nM |
| CC(C)n1cncc(-c2ccc(C3(NC(=O)c4ncc5cnn(C6COC6)c5n4)CC3)cc2)c1=O [Compound 60] | 59 nM |
| CC(C)n1cncc(-c2ccc(C3(NC(=O)c4ncc5cnn(CC6CC6)c5n4)CC3)cc2)c1=O [Compound 61] | 14 nM |
| CC(C)n1cncc(-c2ccc(C3(NC(=O)c4ncc5cnn(CC6CCC6)c5n4)CC3)cc2)c1=O [Compound 62] | 21 nM |
| CC(C)n1cncc(-c2ccc(C3(NC(=O)c4ncc5cnn(-c6ccccn6)c5n4)CC3)cc2)c1=O [Compound 63] | 37 nM |
| CC(C)n1ncc2cnc(C(=O)NC3(c4ccc(-c5cncn(C6CC(F)(F)C6)c5=O)cc4)CC3)nc21 [Compound 65] | 36 nM |
| CC(C)n1ncc2cnc(C(=O)NC3(c4ccc(-c5cncn(CC6CCC6)c5=O)cc4)CC3)nc21 [Compound 66] | 48 nM |
| C[C@H](n1cncc(-c2ccc(C3(NC(=O)c4ncc5cnn(CC6CC6)c5n4)CC3)cc2)c1=O)C(F)(F)F [Compound 68] | 43 nM |
| C[C@@H](n1cncc(-c2ccc(C3(NC(=O)c4ncc5cnn(CC6CC6)c5n4)CC3)cc2)c1=O)C(F)(F)F [Compound 70] | 51 nM |
| CC(C)n1cncc(-c2ccc(C3(NC(=O)c4ncc5cnn(CC6CC6)c5n4)CC3)c(F)c2)c1=O [Compound 72] | 65 nM |
| CC(C)n1cncc(-c2ccc(C3(NC(=O)c4ncc5cnn(CC6CC6)c5n4)CC3)cc2F)c1=O [Compound 73] | 52 nM |
| C[C@@H](n1cncc(-c2ccc(C3(NC(=O)c4ncc5cnn(CC6CC6)c5n4)CC3)c(F)c2)c1=O)C(F)(F)F [Compound 76] | 51 nM |
| CC(C)n1ncc2cnc(C(=O)NC3(c4ccc(-c5cncn(C6CCOCC6)c5=O)cc4)CC3)nc21 [Compound 77] | 42 nM |
| CC(C)n1ncc2cnc(C(=O)NC3(c4ccc(-c5cncn(C6(C)CC6)c5=O)cc4)CC3)nc21 [Compound 78] | 33 nM |

Further compounds by falling IC50, results first:

| IC50 | Structure (SMILES) |
| --- | --- |
| 110 nM | C[C@H](n1cncc(-c2ccc(C3(NC(=O)c4ncc5cnn(CC6CC6)c5n4)CC3)c(F)c2)c1=O)C(F)(F)F [Compound 71] |
| 95 nM | CC(C)n1ncc2cnc(C(=O)NC3(c4ccc(-c5cncn(C)c5=O)cc4)CC3)cc21 [Compound 28, 1-isopropyl-N-(1-(4-(1-methyl-6-oxo-1,6-dihydropyrimidin-5-yl)phenyl)cyclopropyl)-1H-pyrazolo[4,3-c]pyridine-6-carboxamide] |
| 65 nM | CC(C)n1cncc(-c2ccc(C3(NC(=O)c4ncc5cnn(C(C)C)c5n4)CC3)c(F)c2)c1=O [Compound 34] |
| 62 nM | CC(C)n1ncc2cnc(C(=O)NC3(c4ccc(-c5cncn(CC6CC6)c5=O)cc4F)CC3)nc21 [Compound 74] |
| 53 nM | CC(C)n1ncc2cnc(C(=O)NC3(c4ccc(-c5cncn(C)c5=O)c(Cl)c4)CC3)nc21 [Compound 25] |
| 51 nM | CC(C)n1ncc2cnc(C(=O)NC3(c4ccc(-c5cncn(CC6CC6)c5=O)c(F)c4)CC3)nc21 [Compound 75] |
| 49 nM | CC(C)n1ncc2cnc(C(=O)NC3(c4ccc(-c5cncn([C@H]6C[C@@H]6F)c5=O)cc4)CC3)nc21 [Compound 67] |
| 47 nM | CC(C)n1cncc(-c2ccc(C3(NC(=O)c4ncc5cnn(C(C)C)c5n4)CC3)cc2F)c1=O [Compound 35] |
| 42 nM | CC(C)n1ncc2cnc(C(=O)NC3(c4ccc(-c5cncn(CC6CC6)c5=O)cc4)CC3)nc21 [Compound 36] |
| 38 nM | Cn1cncc(-c2ccc(C3(NC(=O)c4nnc(Cc5c(F)cccc5F)[nH]4)CC3)cc2)c1=O [Compound 18] |
| 32 nM | CC[C@H](C)n1cncc(-c2ccc(C3(NC(=O)c4ncc5cnn(C(C)C)c5n4)CC3)cc2)c1=O [Compound 43] |
| 23 nM | C[C@H](c1ccccc1)n1cnc(C(=O)NC2(c3ccc(-c4cncn(C)c4=O)cc3)CC2)n1 [Compound 55, (R)—N-(1-(4-(1-methyl-6-oxo-1,6-dihydropyrimidin-5-yl)phenyl)cyclopropyl)-1-(1-phenylethyl)-1H-1,2,4-triazole-3-carboxamide] |
| 22 nM | CC(C)n1ncc2cnc(C(=O)NC3(c4ccc(-c5cncn(C)c5=O)cc4F)CC3)nc21 [Compound 26] |
| 21 nM | CC(C)n1ncc2cnc(C(=O)NC3(c4ccc(-c5cncn([C@@H]6C[C@@H]6F)c5=O)cc4)CC3)nc21 [Compound 69] |
| 17 nM | O=C(NC1(c2ccc(-c3cncn(CC4CC4)c3=O)cc2)CC1)c1ncc2cnn(CC3CC3)c2n1 [Compound 64] |
